Experimental data taken from ChEMBL document CHEMBL2434921, “New synthetic aliphatic sulfonamido-quaternary ammonium salts as anticancer chemotherapeutic agents” (2013).
The source made the active and inactive calls. The calls are words filed in the database; no cut-off is given here.

How the values were obtained:
NCI-H23 [1] = experiment: Growth inhibition of human NCI-H23 cells after 48 hrs by SRB assay; assay type: functional; details: NCI-H23, 48 h
HCT-15 [2] = experiment: Growth inhibition of human HCT15 cells after 48 hrs by SRB assay; assay type: functional; details: HCT-15, 48 h
[3] = target: Rho-related GTP-binding protein RhoB (Homo sapiens) (UniProt P62745); experiment: Transactivation of RhoB (unknown origin) transfected in human HeLa cells at 5 uM measured over 10 secs by dual luciferase reporter gene assay; assay type: cell-based
NUGC-3 [4] = experiment: Growth inhibition of human NUGC3 cells after 48 hrs by SRB assay; assay type: functional; details: NUGC-3, 48 h
ACHN [5] = experiment: Growth inhibition of human ACHN cells after 48 hrs by SRB assay; assay type: functional
MDA-MB-231 [6] = experiment: Growth inhibition of human MDA-MB-231 cells after 48 hrs by SRB assay; assay type: functional; details: MDA-MB-231, 48 h
PC-3 [7] = experiment: Growth inhibition of human PC3 cells after 48 hrs by SRB assay; assay type: functional; details: PC-3, 48 h
PC-3 [8] = experiment: Growth of human PC3 cells at 10 uM after 48 hrs by SRB assay; details: PC-3, 48 h
NUGC-3 [9] = experiment: Growth of human NUGC3 cells at 1 uM after 48 hrs by SRB assay; details: NUGC-3, 48 h
ACHN [10] = experiment: Growth of human ACHN cells at 10 uM after 48 hrs by SRB assay
HCT-15 [11] = experiment: Growth of human HCT15 cells at 3 uM after 48 hrs by SRB assay; details: HCT-15, 48 h
ACHN [12] = experiment: Growth of human ACHN cells at 0.1 uM after 48 hrs by SRB assay
ACHN [13] = experiment: Growth of human ACHN cells at 0.3 uM after 48 hrs by SRB assay
NUGC-3 [14] = experiment: Growth of human NUGC3 cells at 0.1 uM after 48 hrs by SRB assay; details: NUGC-3, 48 h
NUGC-3 [15] = experiment: Growth of human NUGC3 cells at 0.3 uM after 48 hrs by SRB assay; details: NUGC-3, 48 h
HCT-15 [16] = experiment: Growth of human HCT15 cells at 0.3 uM after 48 hrs by SRB assay; details: HCT-15, 48 h
NCI-H23 [17] = experiment: Growth of human NCI-H23 cells at 10 uM after 48 hrs by SRB assay; details: NCI-H23, 48 h
NCI-H23 [18] = experiment: Growth of human NCI-H23 cells at 0.3 uM after 48 hrs by SRB assay; details: NCI-H23, 48 h
MDA-MB-231 [19] = experiment: Growth of human MDA-MB-231 cells at 1 uM after 48 hrs by SRB assay; details: MDA-MB-231, 48 h
MDA-MB-231 [20] = experiment: Growth of human MDA-MB-231 cells at 10 uM after 48 hrs by SRB assay; details: MDA-MB-231, 48 h
MDA-MB-231 [21] = experiment: Growth of human MDA-MB-231 cells at 0.1 uM after 48 hrs by SRB assay; details: MDA-MB-231, 48 h
MDA-MB-231 [22] = experiment: Growth of human MDA-MB-231 cells at 3 uM after 48 hrs by SRB assay; values are per cent of control; details: MDA-MB-231, 48 h
PC-3 [23] = experiment: Growth inhibition of human PC3 cells at 1 uM after 48 hrs by SRB assay; values are per cent of control; details: PC-3, 48 h
PC-3 [24] = experiment: Growth inhibition of human PC3 cells at 3 uM after 48 hrs by SRB assay; values are per cent of control; details: PC-3, 48 h
ACHN [25] = experiment: Growth inhibition of human ACHN cells at 3 uM after 48 hrs by SRB assay; values are per cent of control
ACHN [26] = experiment: Growth inhibition of human ACHN cells at 1 uM after 48 hrs by SRB assay; values are per cent of control
NUGC-3 [27] = experiment: Growth inhibition of human NUGC3 cells at 3 uM after 48 hrs by SRB assay; values are per cent of control; details: NUGC-3, 48 h
PC-3 [28] = experiment: Growth inhibition of human PC3 cells at 0.1 uM after 48 hrs by SRB assay; values are per cent of control; details: PC-3, 48 h
PC-3 [29] = experiment: Growth inhibition of human PC3 cells at 0.3 uM after 48 hrs by SRB assay; values are per cent of control; details: PC-3, 48 h
HCT-15 [30] = experiment: Growth inhibition of human HCT15 cells at 1 uM after 48 hrs by SRB assay; values are per cent of control; details: HCT-15, 48 h
NUGC-3 [31] = experiment: Growth inhibition of human NUGC3 cells at 10 uM after 48 hrs by SRB assay; values are per cent of control; details: NUGC-3, 48 h
HCT-15 [32] = experiment: Growth inhibition of human HCT15 cells at 10 uM after 48 hrs by SRB assay; values are per cent of control; details: HCT-15, 48 h
NCI-H23 [33] = experiment: Growth inhibition of human NCI-H23 cells at 1 uM after 48 hrs by SRB assay; values are per cent of control; details: NCI-H23, 48 h
NCI-H23 [34] = experiment: Growth inhibition of human NCI-H23 cells at 3 uM after 48 hrs by SRB assay; values are per cent of control; details: NCI-H23, 48 h
HCT-15 [35] = experiment: Growth inhibition of human HCT15 cells at 0.1 uM after 48 hrs by SRB assay; values are per cent of control; details: HCT-15, 48 h
NCI-H23 [36] = experiment: Growth inhibition of human NCI-H23 cells at 0.1 uM after 48 hrs by SRB assay; values are per cent of control; details: NCI-H23, 48 h
MDA-MB-231 [37] = experiment: Growth inhibition of human MDA-MB-231 cells at 0.3 uM after 48 hrs by SRB assay; values are per cent of control; details: MDA-MB-231, 48 h

Sequence of Rho-related GTP-binding protein RhoB (Homo sapiens) (P62745 whole entry): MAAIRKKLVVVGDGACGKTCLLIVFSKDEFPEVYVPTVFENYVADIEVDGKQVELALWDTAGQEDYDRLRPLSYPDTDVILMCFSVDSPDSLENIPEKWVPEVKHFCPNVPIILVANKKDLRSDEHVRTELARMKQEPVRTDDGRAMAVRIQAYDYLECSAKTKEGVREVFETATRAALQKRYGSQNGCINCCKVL

SMILES	GI50 (NCI-H23 [1]) [µM]	GI50 (HCT-15 [2]) [µM]	Activity [3]	GI50 (NUGC-3 [4]) [µM]	GI50 (ACHN [5]) [µM]	GI50 (MDA-MB-231 [6]) [µM]	GI50 (PC-3 [7]) [µM]	growth, % of control at 10 µM (PC-3 [8]) [%]	growth, % of control at 1 µM (NUGC-3 [9]) [%]	growth, % of control at 10 µM (ACHN [10]) [%]	growth, % of control at 3 µM (HCT-15 [11]) [%]	growth, % of control at 0.1 µM (ACHN [12]) [%]	growth, % of control at 0.3 µM (ACHN [13]) [%]	growth, % of control at 0.1 µM (NUGC-3 [14]) [%]	growth, % of control at 0.3 µM (NUGC-3 [15]) [%]	growth, % of control at 0.3 µM (HCT-15 [16]) [%]	growth, % of control at 10 µM (NCI-H23 [17]) [%]	growth, % of control at 0.3 µM (NCI-H23 [18]) [%]	growth, % of control at 1 µM (MDA-MB-231 [19]) [%]	growth, % of control at 10 µM (MDA-MB-231 [20]) [%]	other results
C=CC[N+](CC)(CC)CCN(C)S(=O)(=O)CCCCCCCCCCCCCCCC	0.45	1.81	Active	0.39	1.45	1.34	0.76	-13.2	34.9	-11.8	66.6	85.9	88.2	89.1	86.6	90.7	-7.6	78.4	80.6	9.2	growth, % of control at 0.1 µM (MDA-MB-231 [21]): 94.8%; growth, % of control at 3 µM (MDA-MB-231 [22]): 42.9%; growth, % of control at 1 µM (PC-3 [23]): 73.3%; growth, % of control at 3 µM (PC-3 [24]): 10%; growth, % of control at 3 µM (ACHN [25]): 50.4%; growth, % of control at 1 µM (ACHN [26]): 82.2%; growth, % of control at 3 µM (NUGC-3 [27]): 4.9%; growth, % of control at 0.1 µM (PC-3 [28]): 88.2%; growth, % of control at 0.3 µM (PC-3 [29]): 91%; growth, % of control at 1 µM (HCT-15 [30]): 84%; growth, % of control at 10 µM (NUGC-3 [31]): -20.2%; growth, % of control at 10 µM (HCT-15 [32]): -7%; growth, % of control at 1 µM (NCI-H23 [33]): 51.3%; growth, % of control at 3 µM (NCI-H23 [34]): 16.9%; growth, % of control at 0.1 µM (HCT-15 [35]): 87.9%; growth, % of control at 0.1 µM (NCI-H23 [36]): 77.9%; growth, % of control at 0.3 µM (MDA-MB-231 [37]): 97%
CCCCCCCCCCCCCCCCS(=O)(=O)NCCC[N+](C)(C)CC	0.91	1.2	Active	0.32	1.29	0.91	0.56	-32.4	41.8	-6.7	35.3	87.7	90.6	74.4	73.5	91.7	-21.5	82.9	75.5	9.2	growth, % of control at 0.1 µM (MDA-MB-231 [21]): 72.6%; growth, % of control at 3 µM (MDA-MB-231 [22]): 39.3%; growth, % of control at 1 µM (PC-3 [23]): 56.3%; growth, % of control at 3 µM (PC-3 [24]): -11.8%; growth, % of control at 3 µM (ACHN [25]): 48.4%; growth, % of control at 1 µM (ACHN [26]): 76.6%; growth, % of control at 3 µM (NUGC-3 [27]): 7.5%; growth, % of control at 0.1 µM (PC-3 [28]): 84.1%; growth, % of control at 0.3 µM (PC-3 [29]): 79.7%; growth, % of control at 1 µM (HCT-15 [30]): 78%; growth, % of control at 10 µM (NUGC-3 [31]): -34.3%; growth, % of control at 10 µM (HCT-15 [32]): 16.3%; growth, % of control at 1 µM (NCI-H23 [33]): 73.4%; growth, % of control at 3 µM (NCI-H23 [34]): 32.2%; growth, % of control at 0.1 µM (HCT-15 [35]): 90%; growth, % of control at 0.1 µM (NCI-H23 [36]): 81.3%; growth, % of control at 0.3 µM (MDA-MB-231 [37]): 75.7%
